Where two headings read alike, the source gives them in different places.
Assays:
MCF7 cells = assay: MTT assay (cytotoxicity) in MCF7 cells; assay type: cell-based; details: Homo sapiens
Experimental: (§1) MCF7, SKOV-3 and MES-SA/Dx5 cells were purchased from American Type Culture Collection (ATCC, Manassas, Va., USA). […] MCF7 cells were cultured in Eagle's Minimum Essential Medium (EMEM) supplemented with 10% fetal bovine serum (FBS) and 0.01 mg/ml bovine insulin. SKOV-3 and MES-SA/Dx5 cells were cultured using McCoy's 5A modified media supplemented with 10% FBS. All experiments were performed in the aforementioned cell-specific media in a 5% CO2 incubator at 37° C.
(§2) Following 24 hours of growth, media was replaced with 200 μL of corresponding sample solutions, which were freshly prepared at varying concentrations in complete cell culture media. Cells in media containing 10% FBS with nothing added were used as controls. After 12 hours or 48 hours of treatment, cells were rinsed and cultured with fresh medium containing 0.5 mg/mL of MTT for an additional 3 hours. Following careful aspiration of MTT solution and media after MTT incubation, 200 μL of MTT solubilization solution was added to each well and thoroughly mixed. The optical density at 570 nm was measured using a Safire microplate reader (Tecan Systems, Inc., San Jose, Calif.). Background absorbance at 690 nm was subtracted. Values were expressed as a percentage of the control (incubated with media alone). All conditions were done in sextuplicate in two independent experiments for each cell line.

[1] = test system: SKOV-3 ovarian cancer cells; assay: MTT assay (cytotoxicity) in SKOV-3 cells; assay type: cell-based; details: Homo sapiens, SK-OV-3, paclitaxel-equivalent concentration
Experimental: MCF7, SKOV-3 and MES-SA/Dx5 cells were purchased from American Type Culture Collection (ATCC, Manassas, Va., USA). Media, Dulbecco's phosphate buffered saline (DPBS), and 0.25% trypsin/EDTA were purchased from Invitrogen (Carlsbad, Calif., USA). MCF7 cells were cultured in Eagle's Minimum Essential Medium (EMEM) supplemented with 10% fetal bovine serum (FBS) and 0.01 mg/ml bovine insulin. SKOV-3 and MES-SA/Dx5 cells were cultured using McCoy's 5A modified media supplemented with 10% FBS. All experiments were performed in the aforementioned cell-specific media in a 5% CO2 incubator at 37° C.
as §2, with “Briefly, cells were seeded on 96-well plates for 24 hours before the assay at a density of 1.5×10^4 cells/well. Following” for “Following”, “Following careful aspiration of MTT solution and media after MTT incubation, 200 μL of MTT solubilization solution was added to each well and thoroughly mixed.” left out, “All conditions were done in sextuplicate in two independent experiments for each cell line.” left out

MES-SA/Dx5 cells [2] = assay: MTT assay (cytotoxicity) in paclitaxel-resistant MES-SA/Dx5 cells; assay type: cell-based, human
Experimental: as §1, §2

MES-SA/Dx5 cells [3] = assay: Fluorescent TUNEL assay (apoptosis) in MES-SA/Dx5 cells; assay type: cell-based, human; details: MES-SA/Dx5, 48 hours, 100 nM paclitaxel or DNA strand
Experimental: MCF7 and MES-SA/Dx5 cells were seeded on 0.17 mm thick coverslips in 12-well plates at a density of 2×10^5 cells/well for 24 hours prior to fluorescent TUNEL assay. Cells were treated with nothing, DNA-AuNPs at a DNA strand concentration of 100 nM (negative controls), 100 nM of free paclitaxel and compound 1 (positive controls), PTX-DNA-AuNPs at the equivalent paclitaxel concentrations of 50 nM and 100 nM (samples), respectively, for 48 hours. Live cells were rinsed and stained in accordance with instructions and materials for adherent cultured cells provided by Chemicon International ApopTag Plus Fluorescein In situ Apoptosis Detection Kit S7111 (Temecula, Calif.). ApopTag utilizes the terminal deoxynucleotidyl transferase (TdT) enzyme to amplify the fluorescein-conjugated anti-digoxigenin antibody, a secondary antibody towards digoxigenin-labeled nucleotide-labeled 30-OH termini on DNA fragments. Images were acquired on a Zeiss LSM 510 inverted microscope (computer controlled using Zeiss Zen software).
MCF7 or MES-SA/Dx5 cells were incubated with drug-free DNA-AuNPs, free paclitaxel, compound 1 and PTX-DNA@AuNPs, respectively, at varying concentrations for 48 hours.

[4] = Dynamic light scattering (DLS) hydrodynamic size and dispersion in PBS; assay type: physicochemical; details: 25 μM paclitaxel in PBS, DLS and TEM
Experimental: PTX-DNA-AuNPs or DNA-AuNPs were resuspended in 200 uL PBS buffer with oligonucleotide strands of an equivalent concentration of 25 μM. Hydrodynamic size measurements were conducted using the Zetasizer Nano ZS (Malvern, Worcestershire, U.K.). The size measurements were performed at 25° C. at a 173° scattering angle in disposable micro cuvettes (minimum volume 40 μL, Malvern, Worcestershire, U.K.). The mean hydrodynamic diameter was determined by cumulative analysis. Transmission Electron Microscopy (TEM) was performed using a 200 kV Hitachi H-8100 TEM (EPIC, Northwestern University). Diluted PTX-DNA-AuNPs in deionized water were pipetted onto a commercial carbon TEM grid (Ted Pella Inc., Redding, Calif.). Upon air drying for 2 hours, samples were then observed within a Hitachi H-8100 TEM.

CC(=O)O[C@H]1C(=O)[C@@]2(C)[C@H]([C@H](OC(=O)c3ccccc3)[C@]3(O)C[C@H](OC(=O)[C@H](O)[C@@H](NC(=O)c4ccccc4)c4ccccc4)C(C)=C1C3(C)C)[C@]1(OC(C)=O)CO[C@@H]1C[C@@H]2O [paclitaxel]
IC50 (MCF7 cells; MCF7, 12 h incubation, paclitaxel-equivalent concentration, read-out: IC50 (nM Paclitaxel)): > 1000 nM
IC50 (MCF7 cells; MCF7, 12 hour incubation, read-out: IC50 value): > 1000 nM
IC50 (MCF7 cells; MCF7, 48 h incubation, paclitaxel-equivalent concentration, read-out: IC50 (nM Paclitaxel)): 193 nM
IC50 ([1]; SKOV-3, 12 h incubation): 176 nM
IC50 ([1]; SKOV-3, 48 h incubation): 28.9 nM
viability at 0.2 µM (MES-SA/Dx5 cells [2]; Homo sapiens, 48 h, MES-SA/Dx5, 2 days incubation, 200 nM drug concentration, % of control, read-out: cell viability): 76%
IC50 (MES-SA/Dx5 cells [2]; Homo sapiens, MES-SA/Dx5, 12 h incubation, paclitaxel-equivalent concentration, read-out: IC50 (nM Paclitaxel)): > 1000 nM
IC50 (MES-SA/Dx5 cells [2]; Homo sapiens, MES-SA/Dx5, 48 h incubation, paclitaxel-equivalent concentration, read-out: IC50 (nM Paclitaxel)): > 1000 nM
IC50 (MES-SA/Dx5 cells [2]; Homo sapiens, resistant MES-SA/Dx5 cells, 12 hours and 48 hours, read-out: IC50 values): > 1000 nM
therapeutic activity (MES-SA/Dx5 cells [2]; paclitaxel-resistant MES-SA/Dx5, 200 nM, 2 days): did not display any significant therapeutic activity
TUNEL staining (apoptosis) (MES-SA/Dx5 cells [3]): lower fraction of TUNEL-positive signals
dispersion in PBS [4]: severe aggregation

Source: patent US20120283316A1, “Delivery of Therapeutic Agents Using Oligonucleotide-Modified Nanoparticles As Carriers” (priority 2009, published 2012)
